Measured values from ChEMBL document CHEMBL1201862, “PubChem BioAssay data set” (2004).
One block for each molecule: values may come before it. Calls of active or inactive are those of the source.

What was measured:
Type in all cases: functional
[1] = target: DNA dC->dU-editing enzyme APOBEC-3A (Homo sapiens, UniProt P31941); test: SAR analysis of small molecule inhibitors of APOBEC3A DNA Deaminase via a fluorescence-based single-stranded DNA deaminase assay.; conditions: read-out: IC50_Mean
[2] = target: DNA dC->dU-editing enzyme APOBEC-3G (Homo sapiens, UniProt Q9HC16); test: APOBEC3G deaminase inhibitors, SAR follow-up, biochemical, fluorescence, single-stranded DNA substrate (AID 602136); conditions: read-out: IC50_Mean
[3] = target: Protein disulfide-isomerase (Homo sapiens, UniProt P07237); test: PDI inhibitors, insulin aggregation turbidity, dose response, biochemical, absorbance, cherry-picked samples (AID 602350)
[4] = target: Dual specificity tyrosine-phosphorylation-regulated kinase 1B (Homo sapiens, UniProt Q9Y463); test: Navigating the Kinome. Panel member name: DYRK1B
[5] = target: Cyclin-dependent kinase 5 (Homo sapiens, UniProt Q00535);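 also: CDK5 measured as one member of a kinase profiling panel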
[6] = target: Cyclin-dependent kinase 9 (Homo sapiens, UniProt P50750);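 also: value from the CDK9 entry of a kinome-spanning kinase panel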
[7] = target: Glycogen synthase kinase-3 beta (Homo sapiens, UniProt P49841);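 also: value comes from a broad kinome profiling panel, with GSK3B as the panel member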
[8] = target: Platelet-derived growth factor receptor beta (Homo sapiens, UniProt P09619);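 also: value comes from a kinome panel, with PDGFRB tested as one panel member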
[9] = target: Proto-oncogene tyrosine-protein kinase receptor Ret (Homo sapiens, UniProt P07949);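 also: measured within a kinome-wide profiling panel, RET as the panel member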
[10] = target: Vascular endothelial growth factor receptor 1 (Homo sapiens, UniProt P17948);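 also: measured within a kinome-wide profiling panel, FLT1 as the panel member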
[11] = target: Leukocyte tyrosine kinase receptor (Homo sapiens, UniProt P29376); test: Navigating the Kinome. Panel member name: LTK
[12] = target: Mitogen-activated protein kinase kinase kinase kinase 2 (Homo sapiens, UniProt Q12851);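 also: measured as one member of a kinome-wide kinase panel, with MAP4K2 as the panel entry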
[13] = target: Serine/threonine-protein kinase TAO1 (Homo sapiens, UniProt Q7L7X3)
[14] = target: Tyrosine-protein kinase receptor TYRO3 (Homo sapiens, UniProt Q06418);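 also: TYRO3 value obtained as one member of a kinome-wide profiling panel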
[15] = target: cAMP-dependent protein kinase catalytic subunit alpha (Homo sapiens, UniProt P17612)
[16] = target: Dual specificity protein kinase CLK4 (Homo sapiens, UniProt Q9HAZ1)
[17] = target: Leucine-rich repeat serine/threonine-protein kinase 2 (Homo sapiens, UniProt Q5S007);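 also: value from a broad kinome-wide panel profiling study in which LRRK2 was one of the kinases tested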
[18] = target: Dual specificity protein kinase CLK2 (Homo sapiens, UniProt P49760)
[19] = target: cAMP-dependent protein kinase catalytic subunit PRKX (Homo sapiens, UniProt P51817)
[20] = target: Death-associated protein kinase 3 (Homo sapiens, UniProt O43293);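 also: measured as one member of a kinome-wide profiling panel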
[21] = target: Fibroblast growth factor receptor 1 (Homo sapiens, UniProt P11362)
[22] = target: Inhibitor of nuclear factor kappa-B kinase subunit epsilon (Homo sapiens, UniProt Q14164); test: Navigating the Kinome. Panel member name: IKBKE
[23] = target: Vascular endothelial growth factor receptor 2 (Homo sapiens, UniProt P35968)
[24] = target: Tyrosine-protein kinase JAK2 (Homo sapiens, UniProt O60674);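 also: JAK2 tested as one member of a kinase panel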
[25] = target: Platelet-derived growth factor receptor alpha (Homo sapiens, UniProt P16234); test: Navigating the Kinome. Panel member name: PDGFRA
Aurora kinase A = Aurora kinase A (Homo sapiens, UniProt O14965);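 also: value from the Navigating the Kinome kinase panel profiling, panel entry STK6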
[26] = target: Macrophage colony-stimulating factor 1 receptor (Homo sapiens, UniProt P07333);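 also: value comes from the Navigating the Kinome screening panel, CSF1R member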
[27] = target: Cyclin-dependent kinase 7 (Homo sapiens, UniProt P50613);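 also: value comes from a kinome-wide kinase profiling panel in which CDK7 is one member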
[28] = target: Glycogen synthase kinase-3 alpha (Homo sapiens, UniProt P49840);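 also: GSK3A result taken from a broad kinome-wide kinase panel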
[29] = target: Serine/threonine-protein kinase PAK 4 (Homo sapiens, UniProt O96013);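 also: value obtained within a kinome profiling panel in which PAK4 was one of the panel members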
[30] = target: Dual specificity tyrosine-phosphorylation-regulated kinase 1A (Homo sapiens, UniProt Q13627);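 also: measured against DYRK1A as one member of a broad kinome profiling panel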
[31] = target: Mitogen-activated protein kinase kinase kinase kinase 4 (Homo sapiens, UniProt O95819)
[32] = target: Casein kinase I isoform alpha (Homo sapiens, UniProt P48729)
[33] = target: Serine/threonine-protein kinase D3 (Homo sapiens, UniProt O94806);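 also: determined within a kinase panel screen, with PRKCN as the panel member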
[34] = target: Serine/threonine-protein kinase TBK1 (Homo sapiens, UniProt Q9UHD2); test: Navigating the Kinome. Panel member name: TBK1
[35] = target: Serine/threonine-protein kinase pim-3 (Homo sapiens, UniProt Q86V86);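 also: value obtained as one member of a broad kinase panel profiling effort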
[36] = target: Serine/threonine-protein kinase pim-1 (Homo sapiens, UniProt P11309)

Sequence of Dual specificity protein kinase CLK4 (Q9HAZ1 whole entry): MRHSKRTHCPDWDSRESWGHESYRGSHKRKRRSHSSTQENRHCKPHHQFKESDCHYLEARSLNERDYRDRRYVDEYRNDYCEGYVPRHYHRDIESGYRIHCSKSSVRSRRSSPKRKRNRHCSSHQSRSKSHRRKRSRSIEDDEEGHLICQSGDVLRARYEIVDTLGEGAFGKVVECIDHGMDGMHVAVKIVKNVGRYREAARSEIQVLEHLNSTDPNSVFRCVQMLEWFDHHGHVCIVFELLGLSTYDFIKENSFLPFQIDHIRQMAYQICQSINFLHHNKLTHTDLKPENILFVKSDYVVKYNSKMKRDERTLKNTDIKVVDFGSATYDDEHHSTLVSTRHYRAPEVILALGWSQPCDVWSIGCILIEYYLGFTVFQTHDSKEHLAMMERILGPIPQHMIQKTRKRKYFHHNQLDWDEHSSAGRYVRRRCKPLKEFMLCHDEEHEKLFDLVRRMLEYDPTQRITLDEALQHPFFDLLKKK
Sequence of Mitogen-activated protein kinase kinase kinase kinase 4 (O95819 whole entry, canonical isoform): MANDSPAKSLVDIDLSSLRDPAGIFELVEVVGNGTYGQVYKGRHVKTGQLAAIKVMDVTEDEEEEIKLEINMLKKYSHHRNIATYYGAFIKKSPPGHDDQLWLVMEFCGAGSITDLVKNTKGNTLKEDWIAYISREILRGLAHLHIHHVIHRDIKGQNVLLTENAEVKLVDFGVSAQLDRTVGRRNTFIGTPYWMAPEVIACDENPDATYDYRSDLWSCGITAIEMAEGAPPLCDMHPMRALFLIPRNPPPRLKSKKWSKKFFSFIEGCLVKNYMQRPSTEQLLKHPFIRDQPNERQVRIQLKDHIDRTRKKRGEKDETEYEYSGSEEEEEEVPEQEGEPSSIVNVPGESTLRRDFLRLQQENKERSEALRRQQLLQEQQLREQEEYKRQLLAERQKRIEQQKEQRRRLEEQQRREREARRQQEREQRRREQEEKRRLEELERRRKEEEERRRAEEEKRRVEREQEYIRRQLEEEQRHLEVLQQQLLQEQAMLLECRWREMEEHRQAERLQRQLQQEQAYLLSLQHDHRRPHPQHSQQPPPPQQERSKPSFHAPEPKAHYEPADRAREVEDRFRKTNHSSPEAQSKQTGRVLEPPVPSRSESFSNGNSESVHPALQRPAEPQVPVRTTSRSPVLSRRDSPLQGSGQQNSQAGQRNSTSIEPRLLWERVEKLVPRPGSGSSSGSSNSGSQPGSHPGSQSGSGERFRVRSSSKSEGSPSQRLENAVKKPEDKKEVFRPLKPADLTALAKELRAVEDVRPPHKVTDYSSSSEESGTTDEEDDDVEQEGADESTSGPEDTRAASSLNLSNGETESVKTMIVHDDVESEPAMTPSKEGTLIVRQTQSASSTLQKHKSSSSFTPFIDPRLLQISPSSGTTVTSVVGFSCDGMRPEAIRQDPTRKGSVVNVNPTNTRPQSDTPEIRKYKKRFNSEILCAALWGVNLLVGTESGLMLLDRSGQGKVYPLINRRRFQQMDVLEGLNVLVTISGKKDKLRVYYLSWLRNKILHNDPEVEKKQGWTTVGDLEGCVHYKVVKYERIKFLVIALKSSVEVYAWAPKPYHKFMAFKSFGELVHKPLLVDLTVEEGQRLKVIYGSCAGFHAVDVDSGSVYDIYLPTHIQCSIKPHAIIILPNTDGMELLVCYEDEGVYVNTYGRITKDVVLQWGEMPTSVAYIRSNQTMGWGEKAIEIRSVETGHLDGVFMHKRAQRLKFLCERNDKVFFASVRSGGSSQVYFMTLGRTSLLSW
Sequence of Macrophage colony-stimulating factor 1 receptor (P07333 whole entry): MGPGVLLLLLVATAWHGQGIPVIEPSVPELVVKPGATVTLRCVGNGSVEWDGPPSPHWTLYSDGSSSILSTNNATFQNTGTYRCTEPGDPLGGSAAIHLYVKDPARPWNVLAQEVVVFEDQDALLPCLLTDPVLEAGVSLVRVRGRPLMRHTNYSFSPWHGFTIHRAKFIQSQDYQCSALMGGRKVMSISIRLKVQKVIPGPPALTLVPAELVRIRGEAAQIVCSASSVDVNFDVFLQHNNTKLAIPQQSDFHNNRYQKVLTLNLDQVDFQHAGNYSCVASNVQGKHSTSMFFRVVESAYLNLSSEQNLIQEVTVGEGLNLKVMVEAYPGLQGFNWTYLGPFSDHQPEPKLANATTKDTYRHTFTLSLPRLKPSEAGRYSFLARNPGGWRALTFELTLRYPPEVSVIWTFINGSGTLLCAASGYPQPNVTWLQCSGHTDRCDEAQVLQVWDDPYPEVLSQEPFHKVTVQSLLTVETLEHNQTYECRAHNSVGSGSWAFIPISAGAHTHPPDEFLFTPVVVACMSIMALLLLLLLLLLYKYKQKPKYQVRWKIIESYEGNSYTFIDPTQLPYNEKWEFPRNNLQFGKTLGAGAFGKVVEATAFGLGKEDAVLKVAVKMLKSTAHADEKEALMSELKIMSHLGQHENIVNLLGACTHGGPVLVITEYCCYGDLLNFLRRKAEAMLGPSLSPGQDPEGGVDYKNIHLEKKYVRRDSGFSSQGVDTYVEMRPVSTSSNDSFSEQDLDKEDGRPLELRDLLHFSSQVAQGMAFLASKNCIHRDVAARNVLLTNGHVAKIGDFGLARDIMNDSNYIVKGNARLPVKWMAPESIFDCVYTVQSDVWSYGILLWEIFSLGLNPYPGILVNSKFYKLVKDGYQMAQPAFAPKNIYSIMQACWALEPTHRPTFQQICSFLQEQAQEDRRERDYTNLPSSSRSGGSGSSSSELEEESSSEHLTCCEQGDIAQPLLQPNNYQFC
Sequence of Proto-oncogene tyrosine-protein kinase receptor Ret (P07949 whole entry): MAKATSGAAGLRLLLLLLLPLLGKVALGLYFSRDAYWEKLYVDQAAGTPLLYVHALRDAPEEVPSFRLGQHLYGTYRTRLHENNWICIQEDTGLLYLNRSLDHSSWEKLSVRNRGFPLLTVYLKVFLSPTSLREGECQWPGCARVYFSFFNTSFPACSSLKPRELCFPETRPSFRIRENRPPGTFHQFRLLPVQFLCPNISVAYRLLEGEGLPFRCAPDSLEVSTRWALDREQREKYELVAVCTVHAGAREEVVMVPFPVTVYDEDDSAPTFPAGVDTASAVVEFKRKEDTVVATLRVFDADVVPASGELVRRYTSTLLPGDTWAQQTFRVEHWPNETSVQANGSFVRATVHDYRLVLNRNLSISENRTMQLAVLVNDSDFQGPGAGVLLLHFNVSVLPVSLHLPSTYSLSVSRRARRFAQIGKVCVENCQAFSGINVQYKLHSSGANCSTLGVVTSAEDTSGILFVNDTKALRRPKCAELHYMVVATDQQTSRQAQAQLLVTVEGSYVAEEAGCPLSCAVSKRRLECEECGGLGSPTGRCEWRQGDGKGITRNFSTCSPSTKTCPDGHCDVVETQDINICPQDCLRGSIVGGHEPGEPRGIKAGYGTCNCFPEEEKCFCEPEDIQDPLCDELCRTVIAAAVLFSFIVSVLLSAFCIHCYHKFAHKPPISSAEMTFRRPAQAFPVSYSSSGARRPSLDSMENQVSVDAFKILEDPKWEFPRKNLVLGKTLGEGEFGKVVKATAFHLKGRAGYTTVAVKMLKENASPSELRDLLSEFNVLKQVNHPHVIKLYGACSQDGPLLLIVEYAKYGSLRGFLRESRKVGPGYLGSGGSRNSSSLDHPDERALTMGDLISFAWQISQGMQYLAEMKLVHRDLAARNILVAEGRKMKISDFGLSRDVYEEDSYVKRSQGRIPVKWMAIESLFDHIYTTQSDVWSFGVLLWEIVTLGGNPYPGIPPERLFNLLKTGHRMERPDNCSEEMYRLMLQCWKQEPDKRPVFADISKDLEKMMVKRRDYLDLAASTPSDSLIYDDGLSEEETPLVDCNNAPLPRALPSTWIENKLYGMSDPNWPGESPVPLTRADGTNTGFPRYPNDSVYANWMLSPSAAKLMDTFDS
Sequence of Tyrosine-protein kinase receptor TYRO3 (Q06418 whole entry): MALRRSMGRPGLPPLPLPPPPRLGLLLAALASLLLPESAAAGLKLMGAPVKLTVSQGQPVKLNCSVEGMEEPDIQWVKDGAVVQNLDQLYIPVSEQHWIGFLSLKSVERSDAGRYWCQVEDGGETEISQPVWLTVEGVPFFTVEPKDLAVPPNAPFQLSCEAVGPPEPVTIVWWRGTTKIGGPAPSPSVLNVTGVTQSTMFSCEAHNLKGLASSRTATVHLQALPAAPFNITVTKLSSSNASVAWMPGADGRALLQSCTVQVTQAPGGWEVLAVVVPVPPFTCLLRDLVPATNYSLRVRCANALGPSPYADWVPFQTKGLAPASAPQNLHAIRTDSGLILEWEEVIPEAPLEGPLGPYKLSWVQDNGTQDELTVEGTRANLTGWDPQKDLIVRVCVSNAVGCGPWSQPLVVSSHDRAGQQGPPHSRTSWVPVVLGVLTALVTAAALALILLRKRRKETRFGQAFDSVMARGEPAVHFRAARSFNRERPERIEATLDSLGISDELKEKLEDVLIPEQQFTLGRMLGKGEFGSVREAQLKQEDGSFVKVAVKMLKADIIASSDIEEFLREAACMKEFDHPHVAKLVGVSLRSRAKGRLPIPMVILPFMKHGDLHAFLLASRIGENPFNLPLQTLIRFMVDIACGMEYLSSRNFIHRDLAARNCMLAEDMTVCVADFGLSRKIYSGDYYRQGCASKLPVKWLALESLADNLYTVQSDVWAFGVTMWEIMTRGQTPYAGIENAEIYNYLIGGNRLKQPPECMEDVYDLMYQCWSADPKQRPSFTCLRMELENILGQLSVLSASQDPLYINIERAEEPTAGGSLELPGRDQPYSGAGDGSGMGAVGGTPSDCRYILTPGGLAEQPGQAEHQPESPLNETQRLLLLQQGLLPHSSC

Compound: CC(=O)c1c(C)[nH]c(C(=O)CN(C)CC(=O)Nc2ccccc2Cl)c1C
IC50 [1]: > 99 µM (inactive) | IC50 [2]: > 99 µM (inactive)

AC50 [3]: 19.5 µM (active)
Compound: Cc1noc(C)c1S(=O)(=O)Nc1ccc2c(c1)CC(=O)N([C@H](C)CO)C[C@H](C)[C@H](CN(C)S(=O)(=O)c1ccccc1)O2

Ki [4]: 20 µM (active) | Ki [5]: 50.1 µM (active) | Ki [6]: 50.1 µM (active) | Ki [7]: 63.1 µM (active) | Ki [8]: 31.6 µM (active) | Ki [9]: 39.8 µM (active) | Ki [10]: 39.8 µM (active) | Ki [11]: 39.8 µM (active) | Ki [12]: 25.1 µM (active) | Ki [13]: 39.8 µM (active) | Ki [14]: 63.1 µM (active) | Ki [15]: 15.8 µM (active) | Ki [16]: 2.51 µM (active) | Ki [17]: 12.6 µM (active) | Ki [18]: 20 µM (active) | Ki [19]: 39.8 µM (active) | Ki [21]: 63.1 µM (active) | Ki [22]: 100 µM (active) | Ki [23]: 15.8 µM (active) | Ki [24]: 50.1 µM (active) | Ki [25]: 31.6 µM (active) | Ki (Aurora kinase A): > 63.1 µM (inactive) | Ki [26]: 63.1 µM (active) | Ki [27]: 63.1 µM (active) | Ki [28]: 63.1 µM (active) | Ki [29]: 50.1 µM (active) | Ki [30]: 20 µM (active) | Ki [31]: 50.1 µM (active) | Ki [32]: 50.1 µM (active) | Ki [33]: 39.8 µM (active) | Ki [34]: 63.1 µM (active)
Compound: CC(=O)c1ccccc1-c1ncnc2[nH]ccc12
Ki [20]: 63.1 µM (active)

Ki [35]: 2.51 µM (active) | Ki [16]: 2 µM (active) | Ki [36]: 1.26 µM (active)
Compound: O=c1[nH]cnc2c(-c3ccccc3)c(C(F)(F)F)sc12
